Laboratory results reported in PMC3975428, “Dimers of G-Protein Coupled Receptors as Versatile Storage and Response Units” (International Journal of Molecular Sciences, 2014).
One block for each molecule: values may come before it. No end group written: not given here.

B1: human neuropeptide Y Y2 receptor expressed in CHO cells (receptor, UniProt P49146 1-381, looked up)
chain: MGPIGAEADENQTVEEMKVEQYGPQTTPRGELVPDPEPELIDSTKLIEVQVVLILAYCSIILLGVIGNSLVIHVVIKFKSMRTVTNFFIANLAVADLLVNTLCLPFTLTYTLMGEWKMGPVLCHLVPYAQGLAVQVSTITLTVIALDRHRCIVYHLESKISKRISFLIIGLAWGISALLASPLAIFREYSLIEIIPDFEIVACTEKWPGEEKSIYGTVYSLSSLLILYVLPLGIISFSYTRIWSKLKNHVSPGAANDHYHQRRQKTTKMLVCVVVVFAVSWLPLHAFQLAVDIDSQVLDLKEYKLIFTVFHIIAMCSTFANPLLYGWMNSNYRKAFLSAFRCEQRLDAIHSEVSVTFKAKKNLEVRKNSGPNDSFTEATNV
notes: neuropeptide Y receptor type 2 (Y2), human cDNA in pcDNA 3.1+; Assayed in particulates (membranes) of the cells and in digitonin/cholate lysates of them; also called hY2 receptor; CHO-Y2; source: CHO-K1, stably expressed (cDNA in pcDNA 3.1+), postnuclear particulates, solubilised with digitonin and cholate

What was measured:
[1] = tested on: Y4 receptor; conditions: cited from earlier work
From the text: (§1) The classical view of agonist binding assumes an attachment that is readily terminated by dilution or competition by ligands of higher affinity, such as competitive antagonists. The weak agonist binding for small ligand receptors, such as catecholamine receptors, greatly diminishes analytical options. This has signally contributed to the analytical success of covalent proteinaceous tags. However, many GPCRs with peptidic agonists show agonist attachments that are stable at least at low temperatures, and slow to dissociate even at 37 °C. Such stable (“quasi-irreversible”) binding was found for ...

[2] = tested on: rabbit kidney Y2 receptor; experiment: PYY(3–36) binding to rabbit kidney Y2 receptor (heteropentamer and monomer forms)
Experimental: The receptors were labeled for 30 min at 25 °C in respective particulates (50 μg protein/assay), employing not more than 50 pM [^125I]-labeled agonist peptides (as stated in individual experiments). […] The basal assay buffer contained 0.2% proteinase-free bovine serum albumin, 20 mM hepes.NaOH (pH 7.4), 1 mM diisopropylfluorophosphate, 0.04% bacitracin, and 10 μg/mL each of proteinase inhibitors aprotinin, bestatin, chymostatin, leupeptin and pepstatin. Depending on experiment design, this was supplemented by 3 mM CaCl2 and 1 mM MgCl2, (buffer A) or by 1 mM Na EDTA, pH 7.4 (buffer B). The nucleotide site labeling at 200 pM [^35S]GγS was for 30 min at 28 °C after pre-activation for 30 min at 28 °C at 3 μM GDP in the basal buffer with 50 μM EDTA, 100 mM NaCl and 4 mM MgCl2, and without CaCl2 (buffer C). All subsequent operations were carried out at 0–5 °C. The assays were terminated by sedimentation for 10 min at 30,000× gmax, followed by surface wash of the pellets.

[3] = tested on: 180 kDa heteropentamer and 90 kDa monomer-Gi α of Y2 receptor; experiment: Stability of agonist binding of 180 kDa and 90 kDa Y2 complexes to reagents; assay type: biochemical, rabbit; conditions: for sensitivity of 180 kDa labeled material to K^+: 0.3 M K^+ (as KCl or KI)
From the text: Figure 6. Stability and affinity of agonist binding differs greatly for heteropentamer and monomer forms of the rabbit kidney Y2 receptor. (A) Y2 agonist attached to 180 kDa heteropentamer is recovered completely by 10% polyethyleneglycol (PEG) at 0.3 M K^+ (The data are averages of six gradients, ±1 S.E.).
The stability and affinity of agonist association with CHO-Y2 receptors could also be analyzed at the level of dimers and monomers by extraction and precipitation procedures coupled to competition binding assays (Figure 6).
The pellets were then counted in a scintillation counter.
(§2) Rabbit kidney postmitochondrial particulates, rabbit piriform cortex and hypothalamic crude synaptosomes and CHO cell postnuclear particulates were prepared as described previously. After solubilization of particulates at 10 mM each of digitonin and sodium cholate in buffer A or B, the lysates were spun for 10 min at 1000× g to remove debris, and the supernatants sedimented for periods indicated in figure captions at 218,000× gmax through linear 5%–20% sucrose gradients (10 mL, made in buffer A). The gradients were divided by bottom dripping in 23 fractions of 0.45 mL. The sedimentation positions were calibrated with [^125I]-labeled bovine γ-globulin (158 kDa), human iron-saturated transferrin (75 kDa) and ovalbumin (44 kDa), and with colorized myosin (211 kDa), producing a linear relation of migration to molecular weight (R^2 > 0.99).

[4] = biological target: rabbit Y2 receptor, native (rabbit (endogenous in kidney cortex, hypothalamus, piriform cortex)); experiment: radioligand binding; competition of PYY(3–36) with [125I]PYY(3–36), rabbit kidney particulates, entire receptor complement
[5] = biological target: rabbit Y2 receptor, native (rabbit (endogenous in kidney cortex, hypothalamus, piriform cortex)); experiment: radioligand binding; competition of PYY(3–36), rabbit kidney particulates after extraction with 8 mM cholate at 0–5 °C (>90% dimeric residue), trypsin up to 3 μg/mL
[6] = tested on: 180 kDa heteropentamer (Y2 receptor dimer, G-protein trimer); experiment: Nucleotide labeling / conversion of 180 kDa heteropentamer to 90 kDa Gi3α-receptor monomer; assay type: biochemical; conditions: 1–5 mM Mg^2+, micromolar GDP or GγS
Experimental: The receptors were labeled for 30 min at 25 °C in respective particulates (50 μg protein/assay), employing not more than 50 pM [^125I]-labeled agonist peptides (as stated in individual experiments). Higher molar inputs of agonist peptides would produce significant Gα activation within short exposures (e.g., [24, 53]). The basal assay buffer contained 0.2% proteinase-free bovine serum albumin, 20 mM hepes.NaOH (pH 7.4), 1 mM diisopropylfluorophosphate, 0.04% bacitracin, and 10 μg/mL each of proteinase inhibitors aprotinin, bestatin, chymostatin, leupeptin and pepstatin. Depending on experiment design, this was supplemented by 3 mM CaCl2 and 1 mM MgCl2, (buffer A) or by 1 mM Na EDTA, pH 7.4 (buffer B). The nucleotide site labeling at 200 pM [^35S]GγS was for 30 min at 28 °C after pre-activation for 30 min at 28 °C at 3 μM GDP in the basal buffer with 50 μM EDTA, 100 mM NaCl and 4 mM MgCl2, and without CaCl2 (buffer C). All subsequent operations were carried out at 0–5 °C. The assays were terminated by sedimentation for 10 min at 30,000× gmax, followed by surface wash of the pellets.
as §2, with “0.99). […]” for “0.99).”

[7] = tested on: neuromedin U receptors; conditions: cited from earlier work
From the text: as §1

[8] = tested on: endothelin-1 receptor; conditions: cited from earlier work
From the text: as §1

[9] = tested on: human calcitonin receptor; conditions: cited from earlier work
From the text: as §1

[10] = tested on: Y1 receptor; conditions: cited from earlier work
From the text: as §1

[11] = tested on: Y2 receptor; conditions: cited from earlier work
From the text: The classical view of agonist binding assumes an attachment that is readily terminated by dilution or competition by ligands of higher affinity, such as competitive antagonists. The weak agonist binding for small ligand receptors, such as catecholamine receptors, greatly diminishes analytical options.

[12] = tested on: Y2 receptor aggregates (rabbit kidney); experiment: Y2 receptor aggregates, sedimentation after treatment, rabbit kidney particulates; assay type: biochemical; conditions: 15 min at 24 °C
Experimental: (§3) Figure 5. […] Particulates from rabbit kidney (A) and anterior hypothalamus (B) were incubated with 20 μM GγS or 10 μM U73122 for 15 min at 24 °C, sedimented, resuspended, labeled with 50 pM [^125I]hPYY(3–36) for 15 min at 24 °C, resedimented, lysed at 10 mM each digitonin and cholate and sedimented through a 10%–30% linear sucrose gradient for 6 h at 218,000× g and 5 °C, followed by gradient fractionation and counting. TEXT PRINTED IN THE PICTURE: (A) GγS: Bottom count: 10.8% | (A) U73122: Bottom count: 25.4% | (B) GγS: Bottom count: 8.98 % | (B) U73122: Bottom count: 17.4 %
as §2

[13] = tested on: Y2 receptor aggregates (anterior hypothalamus); experiment: Y2 receptor aggregates, sedimentation after treatment, rabbit anterior hypothalamus particulates; assay type: biochemical; conditions: 10 μM, 15 min at 24 °C, 10%–30% gradient 6 h at 218,000× g
Experimental: as §3
as §2, with “The sedimentation positions were calibrated with [^125I]-labeled bovine γ-globulin (158 kDa), human iron-saturated transferrin (75 kDa) and ovalbumin (44 kDa), and with colorized myosin (211 kDa), producing a linear relation of migration to molecular weight (R^2 > 0.99).” left out

[14] = tested on: aggregated Y2 receptor material (rabbit kidney and CHO-Y2 particulates); experiment: Release of aggregated Y2 receptor material (bottom of 5%–20% gradients); assay type: biochemical; conditions: 10 μM, preliminary experiment
Experimental: More than 30% of the Y2 binding in rabbit kidney postmitochondrial particulates, and more than 20% in the CHO-Y2 postnuclear particulates sediments to the bottom of 5%–20% sucrose gradients over 18 h at 218,000× gmax, corresponding to weight in excess of 1000 kDa. A large part of this material sediments at 30,000× gmax over 10 min, and could be considered as aggregated. […] This preliminary experiment points to potential of such procedures in quantitation of effector-associated receptors at the level of dimers and monomers. There also is a promise of gaining more insight on the size and significance of receptor oligomers incorporating more than two receptor monomers.
as §2

[15] = biological target: rabbit Y2 receptor, native (rabbit (endogenous in kidney cortex, hypothalamus, piriform cortex)); experiment: radioligand binding; aliquots of gradient fractions of labeled rabbit kidney particulates precipitated with 10% polyethyleneglycol-8000 at 300 mM KCl or KI and 50 μg/mL bovine γ-globulin, 10 min at 0–4 °C
[16] = biological target: the molecule itself; experiment: sucrose density gradient centrifugation; CHO-Y2 particulates preincubated in assay buffer at 27 °C (1 h or 3 h) or in ice (3 h), labeled 20 min at 27 °C with [125I]PYY(3–36), solubilised at 10 mM each digitonin and cholate, 5%–20% sucrose gradients, 18 h at 5 °C, 218,000 x gmax
[17] = biological target: B1; experiment: radioligand binding; competition against [125I]PYY(3–36) at the hY2 receptor; conditions not given; conditions: one partner purified

Molecule: pancreatic polypeptide
stability of agonist binding [1]: quasi-irreversible

Bmax for the dimeric Y2 in the cholate residue ([2]; above 0.3 μg trypsin): increases significantly | effect on affinity of PYY(3–36) binding to dimeric residue ([2]; trypsin at up to 3 μg/mL, cholate residue): unaffected | stability of heteropentamers to trypsin ([3]; rabbit kidney particulates): considerable stability
Molecule: trypsin

IC50 [4]: 0.2 to 0.5 nM | IC50 [5]: 0.01 nM
Molecule: human peptide YY(3–36) (from UniProt P10082 31-64)

Molecule: Nc1nc2c(ncn2[C@@H]2O[C@H](COP(=O)(O)OP(=O)(O)O)[C@@H](O)[C@H]2O)c(=O)[nH]1 [GDP]
conversion of 180 kDa heteropentamer [6]: does convert to immunoprecipitable 90 kDa Gi3α-receptor monomer

effect on Y2 agonist bound to 90 kDa monomer-Gi α ([3]; 8 mM cholate at 0–5 °C): detached | effect of sodium cholate on activated monomers ([3]; rabbit kidney particulates): removes activated monomers
Molecule: C[C@H](CCC(=O)[O-])[C@H]1CC[C@H]2[C@@H]3[C@H](O)C[C@@H]4C[C@H](O)CC[C@]4(C)[C@H]3C[C@H](O)[C@]12C.[Na+] [sodium cholate]

Molecule: neuromedin U (FRVDEEFQSPFASQSRGYFLFRPRN; ends and bridges not checked; UniProt P48645 142-166, looked up) [agonist at its receptors]
stability of agonist binding [7]: quasi-irreversible

Molecule: endothelin
stability of agonist binding [8]: quasi-irreversible

Molecule: salmon calcitonin
stability of agonist binding [9]: quasi-irreversible

Molecule: neuropeptide Y [NPY]
stability of agonist binding [10]: quasi-irreversible | stability of agonist binding [11]: quasi-irreversible

effect on Y2 agonist bound to 90 kDa monomer-Gi α ([3]; 0.3 M KCl): detached | sensitivity of 180 kDa labeled material to K^+ [3]: not sensitive
Molecule: [Cl-].[K+] [KCl]

main form yielded from Y2 receptor aggregates ([12]; particulates from rabbit tissues (kidney and anterior hypothalamus), GγS 20 μM or U73122 10 μM): largely the heteropentamer | Bottom count ([12]; rabbit kidney, 10 μM, 10%–30% gradient 6 h at 218,000× g): 25.4% | Bottom count [13]: 17.4% | part of aggregated material released [14]: About a third
Molecule: COc1ccc2c(c1)CC[C@@H]1[C@@H]2CC[C@]2(C)[C@@H](NCCCCCCN3C(=O)C=CC3=O)CC[C@@H]12 [U73122]

sensitivity of 180 kDa labeled material to K^+ [3]: not sensitive
Molecule: [I-].[K+] [KI]

percent of the 180 kDa labeled material precipitated at 10% PEG [15]: > 80%
Molecule: [125I]human peptide YY(3–36) (from UniProt P10082 31-64)

Molecule: B1
stoichiometry N [16]: 2

Kd [17]: 6.2 ± 1.2 nM
B2: NPY(22–36) (peptide, UniProt P01303 50-64, looked up)
peptide: SALRHYINLITRQRY
notes: neuropeptide Y, residues 22-36; also called neuropeptide Y(22–36)
